The record followed here is US20260193242A1, “USEFUL COMPOUNDS FOR MODULATING INFLAMMATION” (FLAGSHIP PIONEERING INNOVATIONS VI, LLC, priority 2022, published 2026).

The test system of assay [1] is TNBS-induced colitis, Balb/c mice. Briefly: TNBS-induced model of colitis in mice, dosing from day -1, prophylactic mode. The class given is in vivo. Here is the method: (§1) Female Balb/c mice aged 8 weeks and weighing 18-20 g were housed under standard conditions. The mice were divided into groups with 8-10 mice in each group by body weight. Mice in sham group received intracolonic injection with 50% ethanol (0.1 mL) at day 0, whereas mice in other Trinitrobenzene sulfonic acid (TNBS) colitis model groups received intracolonic injection of 2% TNBS solution in ethanol (0.1 mL) at day 0. The reference compound Mesalazine (Selleck) and test articles described here were dosed from day-1 to day 6. Day 6 was the endpoint, and samples were immediately harvested for the last endpoint. Mesalazine was dissolved in distilled water (pH 7.0) and test articles were dissolved in Phosal 50 PG for delivery by oral gavage.
As noted, dosing of the compounds described herein, as well as the positive control mesalamine, began one day before TNBS administration. Animals in this scenario have not yet developed colitis symptoms before administration of test articles. For this reason, we refer to these conditions as “prophylactic mode”.
(§2) Body weight and Disease Activity Index (DAI) scores were recorded daily to assess the colitis. DAI score was the sum of the weight loss score, stool score and bleeding sub-scores. A blinded scoring system was employed to assess the colitis. The DAI scorer blinded to the group information and animal ID was responsible for the stool consistency and bleeding evaluations. If there was no blood visible with naked eyes, the Fecal occult blood (FOB) test was performed with a fecal occult blood test strip (the improved pyramidon method).
(§3) Colon tissue morphology, damage and healing were assessed by histopathology. The colons were harvested, mesentery and adipose tissue were carefully removed, and internal contents were removed by rinsing with cold PBS. The colons were Swiss-rolled and fixed in neutralized paraformaldehyde followed by H&E staining. Clinical pathologists reviewed the H&E staining and scored blinded with animal ID. The pathological scoring standards were: crypt architecture (normal, 0-severe crypt distortion with loss of entire crypts, 3), degree of inflammatory cell infiltration (normal, 0-dense inflammatory infiltrate, 3), muscle thickening (base of crypt sits on the muscularis mucosae, 0-marked muscle thickening present, 3), goblet cell depletion (absent, 0-present, 1) and crypt abscess (absent, 0-present, 1).
The plasma was collected at Day-1 for PK and cytokine (IL-1ß and IL-6) analysis by mandibular venipuncture.
(§4) The data was compared by ANOVA with post-hoc Dunnett's multiple comparisons test using Graph Pad Prism 7.0 software (San Diego, CA, USA). P-value<0.05 was considered as statistically significant difference. For pairwise comparison of histology scores and cytokines, unpaired t-test was used to calculate statistical significance. Data was expressed as mean±standard error of mean. In figures, statistical significance is denoted by asterisks: *p<0.05 **p<0.01 ***p<0.005, ****p<0.0001.

In assay [2] the test system is R848-driven IRF reporter (Lucia luciferase, ISG54 promoter/IFN-stimulated response elements) in THP-1 cells. Briefly: TLR7/8 (R848) stimulated interferon response element reporter gene assay in THP1-Dual cells. The class given is cell-based. Conditions: Homo sapiens, THP-1, 10 μM compound, 1 μM R848, THP1-Dual cells; read-out: R848-driven IRF reporter gene assay (Percent inhibition at 10 μM). Here is the method: Compounds described herein are added to the human leukemic monocyte-like cell line THP-1 for bioactivity assessment. THP1-Dual cells (InvivoGen, San Diego, CA) feature the Lucia gene, a secreted luciferase reporter gene, under the control of an ISG54 minimal promoter in conjunction with five IFN-stimulated response elements. THP1-Dual cells also express a secreted embryonic alkaline phosphatase (SEAP) reporter gene driven by an IFN-β minimal promoter fused to five copies of the NF-κB consensus transcriptional response element and three copies of the c-Rel binding site. As a result, THP1-Dual cells allow the simultaneous study of the NF-κB pathway, by monitoring the activity of SEAP, and the IRF pathway, by assessing the activity of Lucia luciferase.
THP-1 dual reporter cells were grown in RPMI 1640 culture medium with 2 mM L-glutamine, 25 mM HEPES, 10% heat-inactivated fetal bovine serum, 100 μg/ml Normocin antibiotic (InvivoGen), Pen-Strep antibiotic (100 U/ml-100 μg/ml, InvivoGen). On the day of the assay, cells were seeded in a 384 flat-bottom well plate at 25,000 cells/well and incubated for 2 hours. Cells were then incubated with 10 μM of the compounds described herein or with 1 μM of IKK-16 (Selleck), a potent inhibitor of IκB kinases (IKKs) or with DMSO (vehicle control) for 2 hours, followed by the addition of the synthetic TLR7/8 agonist R848 at 1 μM and incubation for 16 hours. After incubation was concluded, the cultures supernatants were collected and IRF related activity was assessed by measurement of the Lucia luciferase, using Quanti-Luc assay (InvivoGen). NF-κB pathway activity was assessed by quantifying SEAP using Quanti-Blue assay (InvivoGen).
In general terms: A reporter such as luciferase makes a cellular process visible.

Assay [3] deals with LPS induced septic shock, C57/B6L mice. Nature of the assay: LPS induced septic shock model in mice. The class given is in vivo. The following applies: 30 mg/kg PO in Phosal 50, 30 min before LPS 1 mg/kg, plasma 2 hours after LPS, vs vehicle. Here is the method:
In the LPS induced septic shock model in mice, the TLR4 agonist LPS is injected into the peritoneal cavity of mice, inducing production of pro-inflammatory cytokines that can be measured in blood two hours later (FIG. 2).
Female C57/B6L mice, 5 mice in each group, were injected with LPS (1 mg/kg) to induce septic shock 30 minutes after oral administration of compounds described herein (formulated in Phosal 50) or the controls dexamethasone (formulated in saline), a corticosteroid, and MCC950 (formulated in 0.5% methylcellulose), an inflammasome inhibitor. The mice were euthanized 2 hours after LPS stimulation, and the whole blood was drawn, processed to plasma, and snap frozen. Cytokine levels in plasma were determined by cytometric bead array assay.

For assay [4], the system named is TNBS-induced colitis, Balb/c mice. Briefly: TNBS-induced model of colitis in mice, dosing from day 2, therapeutic mode. The format is in vivo. As for the experimental part: as §1, §2, §3, §4
Procedures were identical to those in Example 26, except that dosing of the compounds described herein, as well as the positive control mesalamine, began on the second day after TNBS administration, as diagrammed in FIG. 18. Animals in this scenario have developed colitis symptoms before administration of test articles. This is more similar to the clinical scenario with patients with inflammatory bowel disorder presenting with symptoms. For this reason, we refer to these conditions as “therapeutic mode”.

[5] abbreviates: 1, 3 and 10 mg/kg PO, QD, vs Vehicle group.
Setting [6] is: 30 mg/kg PO, QD, dosing from day 2.
Setting [7] is: 30 mg/kg PO, QD, dosing from day 2, vs Vehicle group.

`CN1[C@@H](C(=O)O)CC[C@H]1[C@@H]1CSC(c2ccccc2O)=N1` [Compound I-4, (2R,5S)-5-((R)-2-(2-hydroxyphenyl)-4,5-dihydrothiazol-4-yl)-1-methylpyrrolidine-2-carboxylic acid]: the “body weight (% initial weight) recovery” value in assay [1] (30 mg/kg, PO, QD, day -1 to day 6) is recorded as “faster recovery rate”. For the same compound, in assay [1] (1, 3 and 10 mg/kg PO, QD), the total histology scores result is reported as “lower”. In addition, in assay [1] (1, 3 and 10 mg/kg PO, QD, day -1 to day 6), the “Disease Activity Index (DAI) scores” value is recorded as “dose-dependent improvement”. For the same compound, in assay [1] (setting [5]), the IL-1ß in plasma entry is listed as “decreased” and the IL-6 in plasma result is on record as “decreased”. In addition, in assay [1] (1, 3 and 10 mg/kg PO, QD, H&E colon), the “pathological score (crypt structure failure, inflammatory cell infiltration)” value is reported as “lower”. Further, the ED50 in assay [1] (Mus musculus, 144 h, PO, QD, day -1 to day 6, read-out: dose for half maximal effect or ED50 (DAI score at Day 6)) was 15 mg/kg. The “colon recovery and mucosal healing” value in assay [1] (in a dose-dependent manner, prophylactic mode) was “promoted the colon recovery and mucosal healing”. In addition, the inhibition at 10 µM in assay [2] was at least 50%. In addition, in assay [3], the IFNγ in plasma result is recorded as “statistically significant decreases”, the IL-12p70 in plasma entry is listed as “statistically significant decreases” and the TNFα in plasma result is listed as “statistically significant decreases”. In assay [4] (setting [6]), the “Disease Activity Index (DAI) scores” value is “improvement”, the “body weight (% initial weight) recovery” value was “faster recovery rate” and the total histology scores result is recorded as “lower”. In assay [4] (setting [7]), the IL-1B in plasma result is given as “decreased” and the IL-6 in plasma entry was “decreased”. Also, the “colon recovery and mucosal healing” value in assay [4] (therapeutic mode) was “promoted the colon recovery and mucosal healing”.

The ED50 is the dose at which the effect has come halfway, by size or by number of responders. One may read the inhibition as the drop in the measured response relative to a control, in per cent.
